Results: patent US20110039873A1, “SUBSTITUTED PYRAZOLO[1,5-a] PYRIDINE COMPOUNDS HAVING MULTI-TARGET ACTIVITY” (priority 2009, published 2011)
Where two headings read alike, the source gives them in different places.

Assays:
[1] = target: T1, recombinant human phosphodiesterase 10A1 enzyme (Homo sapiens, UniProt Q9Y233); experiment: PDE10 inhibition assay (PDELight); assay type: biochemical; details: 1 uM cAMP; read-out: PDE 10 Inhibition (IC50 in μM)
T1 construct: purchased BPS Biosciences; host or cells: Baculovirus infected Sf9 cells
T1 sequence (Q9Y233 1-779 isoform Q9Y233-1): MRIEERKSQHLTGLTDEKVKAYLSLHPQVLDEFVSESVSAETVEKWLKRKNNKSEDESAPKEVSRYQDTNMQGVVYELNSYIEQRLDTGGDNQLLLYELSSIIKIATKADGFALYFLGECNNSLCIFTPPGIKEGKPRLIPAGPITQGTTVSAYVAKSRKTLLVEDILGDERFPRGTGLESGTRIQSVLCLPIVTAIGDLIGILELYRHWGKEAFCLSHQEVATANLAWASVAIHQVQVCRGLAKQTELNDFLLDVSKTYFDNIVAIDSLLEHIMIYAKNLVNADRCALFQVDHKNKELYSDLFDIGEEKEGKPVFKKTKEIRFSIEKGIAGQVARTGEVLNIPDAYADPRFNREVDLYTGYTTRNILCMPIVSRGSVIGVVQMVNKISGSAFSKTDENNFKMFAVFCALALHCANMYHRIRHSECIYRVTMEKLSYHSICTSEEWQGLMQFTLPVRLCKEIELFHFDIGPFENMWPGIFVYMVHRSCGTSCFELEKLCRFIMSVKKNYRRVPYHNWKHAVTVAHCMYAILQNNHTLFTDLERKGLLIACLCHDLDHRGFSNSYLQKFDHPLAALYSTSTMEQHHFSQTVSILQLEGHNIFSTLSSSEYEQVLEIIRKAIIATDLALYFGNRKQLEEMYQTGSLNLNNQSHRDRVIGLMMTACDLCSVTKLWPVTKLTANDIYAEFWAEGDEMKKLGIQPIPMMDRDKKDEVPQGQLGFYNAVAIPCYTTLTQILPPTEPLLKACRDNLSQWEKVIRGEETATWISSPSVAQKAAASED

[2] = tested on: Mouse BV-2 microglial cells; experiment: BV-2 glial cell assay (TNF-α and MCP-1 by Luminex); assay type: cell-based; details: for EC50: Mus musculus, BV-2, LPS and IFN-γ activated, 20 hours
Procedure: Mouse BV-2 microglial cells were seeded on 96-well plates at a concentration of 3×10^4 cells/well. Cells were activated with 100 ng/mL LPS and IFN-γ (100 ng/mL) in the presence or absence of test compounds (0-30 uM). Following incubation for 20 hours, cells were spun down and supernatant collected. The supernatant was analyzed via Luminex for the presence of TNF-α and MCP-1.

[3] = Oral pharmacokinetic evaluation; assay type: in vivo, rat; details: male, rat, Sprague-Dawley rats, 15 mg/kg oral gavage, plasma
Procedure: Three male Sprague-Dawley rats were dosed orally via gavage with 15 mg/kg of test compound. Serial blood samples were collected from the jugular vein at 5, 15, and 30 min, 1, 3, and 6 hours post dosing. Samples were processed for plasma via centrifugation and plasma samples were stored frozen prior to analysis via a sensitive and specific HPLC/MS/MS method. PK parameters were calculated using WinNonLin (Pharsight).

JNK kinase = experiment: Amyloid beta-induced phosphorylation of JNK kinase (FIG. 2); assay type: cell-based; details: neuronal cells stimulated with Amyloid Beta, ELISA
Procedure: (§1) In 96-well plates either human SH-SY5Y neuroblastoma cells at 2.5×10^4 cells/well or E18 rat neuronal cells at 1.5×10^4 cells/well were seeded. To each well the following was added, Amyloid Beta peptide 1-25 (source) at a concentration of 30 uM, retinoic acid (10 uM) and test compounds (0-30 uM) and incubated for 3 hours. Supernatant was discarded and cells were fixed with 4% paraformaldehyde (100 ul/well) for 20 minutes. FACE cell based ELISA assay (Active Motif) was performed specific for quantifying phosphorlyated c-Jun (serine-73).
Neuronal cells were stimulated with Amyloid Beta, the Alzheimer's related peptide, resulting in phosphorylation of JNK kinase as measured by ELISA.

[4] = target: T2, catalytic domain of phosphodiesterase 4B enzyme cloned from human brain (Homo sapiens, UniProt Q07343); experiment: PDE4 inhibition assay (PDELight); assay type: biochemical; details: 5 uM cAMP; read-out: PDE 4 Inhibition (IC50 in μM)
T2 construct: the catalytic domain of phosphodiesterase 4B enzyme; purchased Scottish Biomedical
T2 sequence (Q07343 330-659 limits assumed): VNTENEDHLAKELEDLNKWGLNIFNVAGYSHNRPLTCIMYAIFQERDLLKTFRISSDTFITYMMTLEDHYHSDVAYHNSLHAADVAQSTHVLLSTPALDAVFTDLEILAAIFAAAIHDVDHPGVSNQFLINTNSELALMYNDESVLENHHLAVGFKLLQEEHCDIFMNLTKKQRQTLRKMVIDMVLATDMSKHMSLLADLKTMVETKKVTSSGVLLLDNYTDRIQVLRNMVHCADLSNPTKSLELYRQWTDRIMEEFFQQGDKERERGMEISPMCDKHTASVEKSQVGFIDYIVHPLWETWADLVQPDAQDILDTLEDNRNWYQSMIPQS
Method in brief: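 Human PDE4B catalytic domain (40 mU/well) incubated with 5 uM cAMP. AMP formed was converted to ATP and measured by luciferase luminescence (PDELight). IC50 derived by nonlinear regression curve fit.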

[5] = tested on: phosphorylated c-Jun (serine-73); experiment: Phosphorylated c-JUN (A-beta), SH-SY5Y; assay type: cell-based; details: Homo sapiens, Amyloid Beta peptide 30 uM, 3 hours, read-out: p-cJun Abeta SH-SY5Y (EC50 in μM)
Procedure: as §1, with “To each well the following was added, Amyloid Beta peptide 1-25 (source) at a concentration of 30 uM, retinoic acid (10 uM) and test compounds (0-30 uM) and incubated for 3 hours.” left out

[6] = tested on: phosphorylated c-Jun (serine-73); experiment: Phosphorylated c-JUN (6-OHDA), SH-SY5Y; assay type: cell-based; details: Homo sapiens, 50 uM 6-hydroxydopamine, 1.5 hours, read-out: p-cJun 6-OHDA SH-SY5Y (EC50 in μM)
Procedure: Human SH-SY5Y neuroblastoma cells were cultured in 96-well plates with 2.5×10^4 cells/well and incubated for 48 hours. 6-hydroxydopamine was added at a concentration of 50 uM in the presence or absence of test compounds (0-30 uM) and incubated for 1.5 hours. Supernatant was discarded and cells were fixed with 4% paraformaldehyde (100 ul/well) for 20 minutes. FACE cell based ELISA assay (Active Motif) was performed specific for quantifying phosphorlyated c-Jun (serine-73).

[7] = target: T3, recombinant full length human JNK3 enzyme (Homo sapiens, UniProt P53779); experiment: JNK 3 inhibition assay (ATP depletion, luciferase); assay type: biochemical
T3 construct: recombinant full length human JNK2 or JNK3 enzyme; purchased Upstate; host or cells: Sf21 cells
T3 sequence (P53779 whole entry): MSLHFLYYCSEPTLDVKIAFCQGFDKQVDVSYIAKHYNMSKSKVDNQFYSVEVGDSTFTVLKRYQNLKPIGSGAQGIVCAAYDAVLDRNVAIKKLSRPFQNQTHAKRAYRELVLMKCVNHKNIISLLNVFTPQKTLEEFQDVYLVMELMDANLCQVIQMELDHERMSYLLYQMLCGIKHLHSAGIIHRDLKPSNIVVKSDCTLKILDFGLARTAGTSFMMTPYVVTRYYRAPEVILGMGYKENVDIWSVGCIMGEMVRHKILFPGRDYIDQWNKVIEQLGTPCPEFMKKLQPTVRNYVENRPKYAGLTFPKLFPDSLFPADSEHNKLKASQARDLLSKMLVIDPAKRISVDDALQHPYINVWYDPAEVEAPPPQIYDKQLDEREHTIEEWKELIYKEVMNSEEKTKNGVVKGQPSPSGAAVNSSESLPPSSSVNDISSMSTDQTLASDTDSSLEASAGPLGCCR
Procedure: In a 96-well plate, recombinant full length human JNK2 or JNK3 enzyme (40 ng) expressed in Sf21 cells (Upstate) was incubated with the substrate ATF2 (3 uM) for 1 hour in the presence of 10 uM ATP. […] The ATP levels were quantified using luciferase with luminescence read on a Victor Light 1420 luminometer. IC50 calculations were plotted using a nonlinear regression curve fit.

[8] = tested on: at least one of JNK 3 or JNK 2 and at least one of PDE 10 or PDE 4; experiment: Dual inhibition (phosphodiesterase and JNK); assay type: biochemical, human; details: IC50 JNK 3 or JNK 2 less than about 5.00 μM and PDE 10 or PDE 4 less than about 20.0 or 30.0 μM
Method in brief: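 JNK2/JNK3: full-length human enzyme with 3 uM ATF2 and 10 uM ATP for 1 h, ATP depletion by luciferase luminescence. PDE4B catalytic domain with 5 uM cAMP, or PDE10A1 with 1 uM cAMP, 1 h; AMP converted to ATP for luminescence. Compounds 0–30 uM; IC50 by nonlinear regression.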

IC50 [1]: 32 µM
EC50 ([2]; read-out: MCP-1 BV-2 (EC50 in μM)): 0.9 µM
EC50 ([2]; read-out: TNF-a BV-2 (EC50 in μM)): 0.3 µM
AUC(0-t) ([3]; read-out: Oral PK AUClast): < 10 ng·h/mL
Cmax ([3]; read-out: Oral PK Cmax): < 5 ng/mL
IC50 [4]: 15.5 µM
EC50 [5]: 8.3 µM
EC50 [6]: 0.7 µM
IC50 ([7]; 10 uM ATP, ATF2 substrate): 0.4 µM
JNK-3 inhibition (in words) ([7]; see Table 2): particularly effective
dual inhibition (phosphodiesterase and JNK) [8]: effective dual inhibitors
SMILES: Cc1cccc2c(-c3ccnc(NC4CCCC4)n3)cnn12 [AV1184, N-cyclopentyl-4-(7-methylpyrazolo[1,5-a]pyridin-3-yl)pyrimidin-2-amine]
inhibiting glial cell activation (TNF-α and/or MCP-1) ([2]; Table 3): Particularly effective
inhibition of amyloid beta-induced phosphorylation of JNK kinase (JNK kinase): capable of inhibiting phosphorylation of JNK kinase in a dose-dependent manner
